The values below come from patent publication US20250025526A1, “COMBINATION THERAPY FOR THE TREATMENT OF FRIEDREICH'S ATAXIA” (Stealth BioTherapeutics Inc., priority 2023, published 2025).

Where a SMILES comes first, the peptide text is derived from it. [ ]: non-standard residue; d: D form. Dmt = Cc1cc(O)cc(C)c1C[C@H](N)C(=O)O

Test [1] has as its system healthy (GM08402; Coriell) fibroblasts. The test can be described thus: Cytoprotection assay, RSL3-induced ferroptosis, healthy fibroblasts (CellTiter-Glo cell viability). Format: cell-based, human. Conditions: healthy patient derived fibroblasts; 18 hour pre-incubation with test compounds 0.001 uM to 1 uM; then 1 uM RSL3 for 4 hours; FIG. 1. How it is done: (§1) To initiate the cytoprotection experiment, healthy (GM08402; Coriell) and FA (GM03665; Coriell) fibroblasts were resuspended in assay medium (Minimum Essential Medium Eagle w/Earles Salts and L-glutamine (MEM; Corning)+15% Qualified Fetal Bovine Serum (FBS)+penicillin (100 U)/streptomycin ([…]), seeded at 10,000 cells per well in a clear, tissue cultured treated 96 well plate), and incubated at 37° C. Eight hours later, the assay medium was manually removed and test compounds, elamipretide (Stealth Biotherapeutics Inc., Needham, MA) and omaveloxolone were added to a final volume of 100 uL at concentrations ranging between 0.001 uM and 1 uM. Following an 18 hour incubation at 37° C., the assay medium was again manually removed. Healthy fibroblasts and FA fibroblasts were then treated with 100 μL of 1 uM and 0.5 uM RSL3 (Sigma, Catalog #1219810), respectively, in assay medium for 4 hours at 37° C. Cell viability was assessed with CellTiter-Glo Luminescent Cell Viability (Promega). Luminescence units were quantified by GEN5 software on a BioTek SYNERGY neo2 plate reader (LUM filter). The data obtained for the health cells are graphically illustrated in FIG. 1 and the data obtained for the FA fibroblasts are graphically illustrated in FIG. 2. […]
For orientation: In ATP-based viability assays light output follows the ATP content of the culture.

Test [2] deals with FA (GM03665; Coriell) fibroblasts. The test can be described thus: Cytoprotection assay, RSL3-induced ferroptosis, FA fibroblasts (CellTiter-Glo cell viability). Format: cell-based, human. Conditions: FA patient derived fibroblasts; 18 hour pre-incubation with test compounds 0.001 uM to 1 uM; then 0.5 uM RSL3 for 4 hours; FIG. 2. How it is done:
as §1

For the compound `Cc1cc(O)cc(C)c1C[C@H](NC(=O)[C@H](N)CCCNC(=N)N)C(=O)N[C@@H](CCCCN)C(=O)N[C@@H](Cc1ccccc1)C(N)=O` [elamipretide, H-D-Arg-2′,6′Dmt-Lys-Phe-NH2] (H-[dR][Dmt]KF-NH2), the “protective/rescue effect on the RSL3 treated cells (cell viability)” value in test [1] and in test [2] was “no apparent effect” each time.

As to `CC1(C)CC[C@]2(NC(=O)C(C)(F)F)CC[C@]3(C)[C@H](C(=O)C=C4[C@@]5(C)C=C(C#N)C(=O)C(C)(C)[C@@H]5CC[C@]43C)[C@@H]2C1` [omaveloxolone, Omaveloxolone], the “protective/rescue effect on the RSL3 treated cells (cell viability)” value in test [1] and in test [2] was “significant protective/rescue effect” throughout.
